Measurements from publication PMC11510342, “Synthesis, Characterization, Bioavailability and Antimicrobial Studies of Cefuroxime-Based Organic Salts and Ionic Liquids” (Pharmaceutics, 2024).
Like-named read-outs stand apart in the source and are kept apart here. Each block holds one compound with its values, some of them ahead of it.

Experiments:
[1] = Water solubility at 37 °C by consecutive addition of water until full dissolution; format: physicochemical
Protocol: The solubility of the prepared cefuroxime OSILs was determined by adding known volumes of water consecutively to a certain amount of CFX-OSILs at 37 °C until full dissolution was observed. Figure 3 presents the maximum water solubility values of the prepared CFX-OSILs.

[2] = test system: Pseudomonas aeruginosa (ATCC 27853); test: Antimicrobial activity, growth inhibition (OD 600 nm); format: cell-based; conditions: for IC50: read-out: IC50 P. aeruginosa
3T3 murine fibroblasts = test: Cytotoxicity on 3T3 cells (MTT assay); format: cell-based; conditions: 24 h; for Toxicity to 3T3 murine fibroblasts compared with the original drug (CFX): 100 µM; for IC50: read-out: IC50 for toxicity on 3T3 murine fibroblasts
[3] = test system: Escherichia coli (ATCC 25922); test: Antimicrobial activity, growth inhibition (OD 600 nm); format: cell-based; conditions: for IC50: read-out: IC50 E. coli
[4] = test system: Bacillus subtilis (ATCC 6633); test: as above; format: cell-based; conditions: for IC50: read-out: IC50 B. subtilis
[5] = Octanol-water partition studies (Kow); format: physicochemical
[6] = cited from earlier work
[7] = 6 h, 0.03–100 µM, interval in brackets
[8] = Pseudomonas aeruginosa, ATCC27853, 6 h, 0.03–100 µM, interval in brackets
[9] = Mus musculus, Fibroblast, MTT, 1–100 µM
[10] = Escherichia coli, ATCC25922, 6 h, 0.03–100 µM, interval in brackets
[11] = Bacillus subtilis, ATCC6633, 6 h, 0.03–100 µM, interval in brackets

SMILES: CO/N=C(\C(=O)N[C@@H]1C(=O)N2C(C(=O)[O-])=C(COC(N)=O)CS[C@H]12)c1ccco1.CO/N=C(\C(=O)N[C@@H]1C(=O)N2C(C(=O)[O-])=C(COC(N)=O)CS[C@H]12)c1ccco1.c1cc[n+](CCCCCCCCCC[n+]2ccccc2)cc1 [[PyC10Py][CFX]2]
- Water solubility ([1]; water, 37 °C): 140000 µg/mL
- Antimicrobial activity against P. aeruginosa compared with CFX [2]: comparable activity to CFX
- IC50 [2, 7]: 0.66 µM
- Toxicity to 3T3 murine fibroblasts compared with the original drug (CFX) (3T3 murine fibroblasts; MTT): no additional detrimental effect
- IC50 (3T3 murine fibroblasts; MTT, 1–100 µM): > 100 µM
- IC50 [3, 7]: 4.92 µM
- Antimicrobial activity against E. coli compared with CFX ([3]; times more effective than CFX): 1.3
- Antimicrobial activity against B. subtilis compared with CFX [4]: comparable activity to CFX
- IC50 [4, 7]: 0.85 µM

SMILES: CCCCCCCCCCCCCCCC[n+]1ccccc1.CO/N=C(\C(=O)N[C@H]1C(=O)N2C(C(=O)[O-])=C(COC(N)=O)CS[C@@H]12)c1ccco1 [[C16Py][CFX]]
- Octanol-water partition (Kow) [5]: 2.5
- Increase in water solubility relative to free CFX [1]: > 7.7 fold
- Water solubility [1]: 5500 µg/mL
- IC50 [2, 7]: 4.54 µM
- Toxicity to 3T3 murine fibroblasts compared with the original drug (CFX) (3T3 murine fibroblasts; MTT): more toxic
- IC50 (3T3 murine fibroblasts; MTT, 1–100 µM): 11.7 µM
- IC50 [3, 7]: 9.66 µM
- IC50 [4, 7]: 5.08 µM

SMILES: CCCCCCCCCC[n+]1ccccc1.CO/N=C(\C(=O)N[C@@H]1C(=O)N2C(C(=O)[O-])=C(COC(N)=O)CS[C@H]12)c1ccco1 [[C10Py][CFX]]
- Kow in comparison with the original drug (CFX) [5]: approximately four-times greater
- Increase in water solubility relative to free CFX [1]: > 7.7 fold
- Water solubility [1]: 5400 µg/mL
- IC50 [2, 7]: 16.6 µM
- Toxicity to 3T3 murine fibroblasts compared with the original drug (CFX) (3T3 murine fibroblasts; MTT): more toxic
- Relative toxicity on 3T3 cells (comparison of IC50 values) (3T3 murine fibroblasts; MTT): approximately five-times less toxic
- IC50 (3T3 murine fibroblasts; MTT, 1–100 µM): 62.5 µM
- IC50 [3, 7]: 90.3 µM
- IC50 [4, 7]: 23 µM

- IC50 [2, 8]: 95.5 µM
- IC50 [3, 10]: > 100 µM
- IC50 [4, 11]: 80.9 µM
SMILES: CCCCCCCCCC[n+]1ccccc1 [[C10Py]Br, reference compound]
- IC50 (3T3 murine fibroblasts; [9]): 98 µM

SMILES: CO/N=C(\C(=O)N[C@@H]1C(=O)N2C(C(=O)O)=C(COC(N)=O)CS[C@H]12)c1ccco1 [cefuroxime sodium]
- Serum concentration ([6]; single 500 mg intramuscular dose, for a period of 2.5 to 3 h): 8000 ng/mL
- Half-life ([6]; single 500 mg intramuscular dose): 1.17 h

SMILES: CCCCCC[n+]1ccccc1.CO/N=C(\C(=O)N[C@@H]1C(=O)N2C(C(=O)[O-])=C(COC(N)=O)CS[C@H]12)c1ccco1 [[C6Py][CFX]]
- IC50 [2, 7]: 3.99 µM
- Toxicity to 3T3 murine fibroblasts compared with the original drug (CFX) (3T3 murine fibroblasts; MTT): no additional detrimental effect
- IC50 (3T3 murine fibroblasts; MTT, 1–100 µM): > 100 µM
- IC50 [3, 7]: 26.8 µM
- IC50 [4, 7]: 8.85 µM

SMILES: CCCCCCCCCCCCCCCC[n+]1ccn(C)c1.CO/N=C(\C(=O)N[C@@H]1C(=O)N2C(C(=O)[O-])=C(COC(N)=O)CS[C@H]12)c1ccco1 [[C16MIM][CFX]]
- Octanol-water partition (Kow) [5]: 1.7
- Water solubility [1]: 11000 µg/mL
- IC50 [2, 7]: 4.02 µM
- Toxicity to 3T3 murine fibroblasts compared with the original drug (CFX) (3T3 murine fibroblasts; MTT): more toxic
- IC50 (3T3 murine fibroblasts; MTT, 1–100 µM): 13.9 µM
- IC50 [3, 7]: 9.23 µM
- IC50 [4, 7]: 2.65 µM

SMILES: c1cc[n+](CCCCCCCCCC[n+]2ccccc2)cc1 [[PyC10Py]Br2, decylbispyridinium dibromide, reference compound]
- IC50 ([2]; Pseudomonas aeruginosa, ATCC27853, 6 h): > 100 µM
- IC50 (3T3 murine fibroblasts; Mus musculus, Fibroblast): > 100 µM
- IC50 ([3]; Escherichia coli, ATCC25922, 6 h): > 100 µM
- IC50 ([4]; Bacillus subtilis, ATCC6633, 6 h): > 100 µM

SMILES: CO/N=C(\C(=O)N[C@@H]1C(=O)N2C(C(=O)O)=C(COC(N)=O)CS[C@H]12)c1ccco1 [CFX, Cefuroxime]
- solubility ([1]; water, 37 °C): < 700 µg/mL
- IC50 [2, 8]: 0.55 µM
- IC50 (3T3 murine fibroblasts; [9]): > 100 µM
- IC50 [3, 10]: 6.42 µM
- IC50 [4, 11]: 0.95 µM

SMILES: CO/N=C(\C(=O)N[C@@H]1C(=O)N2C(C(=O)OC(C)OC(C)=O)=C(COC(N)=O)CS[C@H]12)c1ccco1 (some centres unmarked) [cefuroxime axetil]
- Time of peak concentration in serum ([6]; after oral administration): approximately 2 h

- IC50 [2, 8]: > 100 µM
- IC50 [3, 10]: > 100 µM
- IC50 [4, 11]: > 100 µM
SMILES: CCCCCC[n+]1ccccc1 [[C6Py]Br, reference compound]
- IC50 (3T3 murine fibroblasts; [9]): > 100 µM

- IC50 [2, 8]: 4.81 µM
- IC50 [3, 10]: 11.3 µM
- IC50 [4, 11]: 5.19 µM
SMILES: CCCCCCCCCCCCCCCC[n+]1ccn(C)c1 [[C16MIM]Br, reference compound]
- IC50 (3T3 murine fibroblasts; [9]): 13.3 µM
